pIC50, pKi: −log10 of the molar value.
How the values were obtained:
[1] = test system: TPM3-NTRK1-wt IC50 / primary target IC50 (e.g. CD74-ROS1-wt); assay: TRKA selectivity in Ba/F3 cells (TRKA potency divided by primary target potency); type: cell-based; conditions: for TPM3-NTRK1-wt/CD74-ROS1-G2032R selectivity ratio: TRKA potency / CD74-ROS1-G2032R potency; for TPM3-NTRK1-wt/CD74-ROS1-wt selectivity ratio: TRKA potency / CD74-ROS1-wt potency; for TPM3-NTRK1-wt/EML4-ALK-L1196M-G1202R selectivity ratio: TRKA potency / EML4-ALK-L1196M-G1202R potency; for TPM3-NTRK1-wt/EML4-ALK-wt selectivity ratio: TRKA potency / EML4-ALK-wt potency
Procedure: TRKA selectivity was calculated by dividing a compound's TRKA potency by its primary target potency (e.g. TPM3-NTRK1-wt IC50/CD74-ROS1-wt IC50). Compound selectivity can be interpreted by binning ratio values: bin A for very high selectivity, ratio >30-fold; bin B for high selectivity, ratio >10-fold; bin C for moderate selectivity, ratio ≥1; and bin D for low selectivity, ratio <1. […] (nd=not determined).

ROS1-G2032R = molecular target: T1, ROS1-G2032R (Homo sapiens, UniProt P08922, G2032R); assay: Biochemical kinase assay, ROS1-G2032R kinase domain; conditions: apparent inhibitory constant, Morrison equation; ATP 2 mM in substrate solution; read-out: ROS1-G2032R Ki^app
T1 construct: purchased SignalChem R14-12BG
In short: (§1)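 Compounds, as 100-fold DMSO stocks, were dispensed first, then substrate mix was added (ATP 2 mM, AQT0101 26 μM, in 50 mM HEPES pH 7.5/10 mM MgCl2). Reactions ran at 30 °C with fluorescence logged every 2 min over 120 min. Apparent inhibition constants came from fitting rates to Morrison's tight-binding equation.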

[2] = molecular target: T2, Ba/F3 cells EML4-ALK L1196M/G1202R (variant 1) (Homo sapiens, UniProt Q9UM73, G1202R/L1196M); assay: Ba/F3 cell proliferation assay, EML4-ALK L1196M/G1202R (variant 1); type: cell-based; conditions: 72 hours, CellTiter-Glo
T2 construct: echinoderm microtubule-associated protein-like 4 (EML4) gene and the ALK tyrosine kinase domain; host or cells: Ba/F3 (RIKEN), retroviral pMSCV-puro; the other entry of the earlier key: EML4 (Q9HC35, Echinoderm microtubule-associated protein-like 4)
In short: (§2)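 IL-3-independent Ba/F3 lines stably expressing the fusion kinase (retroviral, puromycin-selected), 1,000 cells/well, treated with 3-fold compound dilutions for 72 h. Viability by CellTiter-Glo luminescence; IC50 from four-parameter logistic fit of percent inhibition.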

ALK-wt = molecular target: T3, ALK-wt (Homo sapiens, UniProt Q9UM73); assay: Biochemical kinase assay, ALK-wt kinase domain; conditions: apparent inhibitory constant, Morrison equation; ATP 2 mM in substrate solution; read-out: ALK-wt Ki^app
T3 construct: purchased Carna 08-518
In short: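 Apparent Ki values come from fitting initial reaction rates against inhibitor concentration to the Morrison equation. Rates were taken from the linear phase of fluorogenic substrate phosphorylation (AQT0101 for ALK and ROS1, AQT0104 for TRKA; 26 μM in substrate solution with 2 mM ATP), monitored at 485 nm over 120 min at 30° C.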

[3] = molecular target: T4, Ba/F3 cells EML4-ALK wt (variant 1) (Homo sapiens, UniProt Q9UM73); assay: Ba/F3 cell proliferation assay, EML4-ALK wt (variant 1); type: cell-based; conditions: 72 hours, CellTiter-Glo
T4 construct: echinoderm microtubule-associated protein-like 4 (EML4) gene and the ALK tyrosine kinase domain; host or cells: Ba/F3 (RIKEN), retroviral pMSCV-puro; the other entry of the earlier key: EML4 (Q9HC35, Echinoderm microtubule-associated protein-like 4)
In short: as §2

TRKA-wt = molecular target: T5, TRKA-wt (Homo sapiens, UniProt P04629); assay: Biochemical kinase assay, TRKA-wt kinase domain; conditions: apparent inhibitory constant, Morrison equation; ATP 2 mM in substrate solution; read-out: TRKA-wt Ki^app
T5 construct: or TRKA-wt (1 nM, BPS Bio, 40280) kinase domains in buffer; purchased BPS Bio 40280
In short: (§3)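 Kinase domains (in kinase solution: ROS1-G2032R 0.5 nM, ROS1-wt 0.6 nM, TRKA 1 nM, ALK L1196M/G1202R 3 nM) were mixed with compound and a substrate solution of 2 mM ATP plus 26 μM fluorogenic AQT0101 (ALK, ROS1) or AQT0104 (TRKA) in HEPES pH 7.5/MgCl2. Fluorescence was followed for 120 min at 30° C; Ki^app was obtained by Morrison fit of initial rates.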

ROS1-wt = molecular target: T6, ROS1-wt (Homo sapiens, UniProt P08922); assay: Biochemical kinase assay, ROS1-wt kinase domain; conditions: apparent inhibitory constant, Morrison equation; ATP 2 mM in substrate solution; read-out: ROS1-wt Ki^app
T6 construct: purchased Carna 08-163
In short: as §1

[4] = molecular target: T7, Ba/F3 cells CD74-ROS1 G2032R (Homo sapiens, UniProt P08922, G2032R); assay: Ba/F3 cell proliferation assay, CD74-ROS1 G2032R; type: cell-based; conditions: 72 hours, CellTiter-Glo
T7 construct: fusion of the C-terminus of ROS1 with the N-terminus of various partner proteins; host or cells: Ba/F3 (RIKEN), retroviral pMSCV-puro; the other entry of the earlier key: CD74 (P04233, HLA class II histocompatibility antigen gamma chain)
In short: (§4)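 First, retrovirally infected Ba/F3 cells were made IL-3-independent and selected with puromycin (0.8 μg/mL). Next, cells were plated and rested one day. Then compounds in 3-fold dilutions were added for 72 hours before CellTiter-Glo readout.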

ALK L1196M/G1202R = molecular target: T8, ALK L1196M/G1202R (Homo sapiens, UniProt Q9UM73, G1202R/L1196M); assay: Biochemical kinase assay, ALK L1196M/G1202R kinase domain; conditions: apparent inhibitory constant, Morrison equation; ATP 2 mM in substrate solution; read-out: ALK-L1196M-G1202R Ki^app
T8 construct: purchased SignalChem A19-12NG
In short: as §3

[5] = molecular target: T9, Ba/F3 cells CD74-ROS1 wild-type (wt) (Homo sapiens, UniProt P08922); assay: Ba/F3 cell proliferation assay, CD74-ROS1 wild-type; type: cell-based; conditions: 72 hours, CellTiter-Glo
T9 construct: fusion of the C-terminus of ROS1 with the N-terminus of various partner proteins; host or cells: Ba/F3 (RIKEN), retroviral pMSCV-puro; the other entry of the earlier key: CD74 (P04233, HLA class II histocompatibility antigen gamma chain)
In short: as §4

Ba/F3 cells TPM3-TRKA = molecular target: T10, Ba/F3 cells TPM3-TRKA (Homo sapiens, UniProt P04629); assay: Ba/F3 cell proliferation assay, TPM3-TRKA; type: cell-based; conditions: 72 hours, CellTiter-Glo, read-out: TPM3-NTRK1-wt IC50
T10 construct: host or cells: Ba/F3 (RIKEN), retroviral pMSCV-puro; the other entry of the earlier key: TPM3 (P06753, Tropomyosin alpha-3 chain)
In short: as §2

T10 sequence (P04629 510-796 limits assumed): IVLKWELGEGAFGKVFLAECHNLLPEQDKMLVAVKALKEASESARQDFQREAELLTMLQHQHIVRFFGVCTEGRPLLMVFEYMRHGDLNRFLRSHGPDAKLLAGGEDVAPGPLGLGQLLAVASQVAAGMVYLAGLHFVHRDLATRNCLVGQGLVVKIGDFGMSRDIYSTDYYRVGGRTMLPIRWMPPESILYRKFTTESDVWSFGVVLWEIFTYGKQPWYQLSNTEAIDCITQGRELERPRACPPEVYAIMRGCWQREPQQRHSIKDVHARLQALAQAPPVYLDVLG
T9 sequence (P08922 1883-2347 limits assumed): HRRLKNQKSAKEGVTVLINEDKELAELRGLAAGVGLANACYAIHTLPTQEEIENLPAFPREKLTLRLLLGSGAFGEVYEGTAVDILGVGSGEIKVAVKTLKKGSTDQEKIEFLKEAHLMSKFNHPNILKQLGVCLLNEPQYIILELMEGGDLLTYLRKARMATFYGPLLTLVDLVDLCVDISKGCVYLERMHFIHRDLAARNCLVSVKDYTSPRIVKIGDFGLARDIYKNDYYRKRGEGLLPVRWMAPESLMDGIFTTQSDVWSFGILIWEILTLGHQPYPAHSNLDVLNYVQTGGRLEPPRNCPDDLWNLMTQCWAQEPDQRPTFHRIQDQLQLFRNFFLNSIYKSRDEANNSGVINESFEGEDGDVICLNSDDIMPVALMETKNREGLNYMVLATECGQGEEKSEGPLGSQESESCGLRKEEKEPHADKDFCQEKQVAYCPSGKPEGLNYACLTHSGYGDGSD
T1 sequence (P08922 1945-2222 G2032R limits assumed): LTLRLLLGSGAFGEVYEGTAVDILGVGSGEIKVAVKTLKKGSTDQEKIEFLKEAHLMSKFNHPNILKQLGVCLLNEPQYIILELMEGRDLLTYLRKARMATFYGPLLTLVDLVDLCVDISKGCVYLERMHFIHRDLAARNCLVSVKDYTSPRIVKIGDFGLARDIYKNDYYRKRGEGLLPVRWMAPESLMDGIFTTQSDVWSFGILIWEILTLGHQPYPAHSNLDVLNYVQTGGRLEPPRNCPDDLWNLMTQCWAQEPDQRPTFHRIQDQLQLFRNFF
T7 sequence (P08922 1883-2347 G2032R limits assumed): as the sequence (P08922 1883-2347 limits assumed) above, with G150R counted along it
T5 sequence (P04629 510-781 limits assumed): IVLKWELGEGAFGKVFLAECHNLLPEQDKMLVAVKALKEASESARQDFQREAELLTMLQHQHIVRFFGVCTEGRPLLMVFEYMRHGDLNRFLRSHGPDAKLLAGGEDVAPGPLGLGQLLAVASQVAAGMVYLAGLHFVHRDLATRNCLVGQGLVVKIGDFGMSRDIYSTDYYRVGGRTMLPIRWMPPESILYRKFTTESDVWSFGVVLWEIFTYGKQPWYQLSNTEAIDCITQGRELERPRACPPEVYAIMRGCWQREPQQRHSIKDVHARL
T2 sequence (Q9UM73 with tags, fused parts or gaps L1196M/G1202R): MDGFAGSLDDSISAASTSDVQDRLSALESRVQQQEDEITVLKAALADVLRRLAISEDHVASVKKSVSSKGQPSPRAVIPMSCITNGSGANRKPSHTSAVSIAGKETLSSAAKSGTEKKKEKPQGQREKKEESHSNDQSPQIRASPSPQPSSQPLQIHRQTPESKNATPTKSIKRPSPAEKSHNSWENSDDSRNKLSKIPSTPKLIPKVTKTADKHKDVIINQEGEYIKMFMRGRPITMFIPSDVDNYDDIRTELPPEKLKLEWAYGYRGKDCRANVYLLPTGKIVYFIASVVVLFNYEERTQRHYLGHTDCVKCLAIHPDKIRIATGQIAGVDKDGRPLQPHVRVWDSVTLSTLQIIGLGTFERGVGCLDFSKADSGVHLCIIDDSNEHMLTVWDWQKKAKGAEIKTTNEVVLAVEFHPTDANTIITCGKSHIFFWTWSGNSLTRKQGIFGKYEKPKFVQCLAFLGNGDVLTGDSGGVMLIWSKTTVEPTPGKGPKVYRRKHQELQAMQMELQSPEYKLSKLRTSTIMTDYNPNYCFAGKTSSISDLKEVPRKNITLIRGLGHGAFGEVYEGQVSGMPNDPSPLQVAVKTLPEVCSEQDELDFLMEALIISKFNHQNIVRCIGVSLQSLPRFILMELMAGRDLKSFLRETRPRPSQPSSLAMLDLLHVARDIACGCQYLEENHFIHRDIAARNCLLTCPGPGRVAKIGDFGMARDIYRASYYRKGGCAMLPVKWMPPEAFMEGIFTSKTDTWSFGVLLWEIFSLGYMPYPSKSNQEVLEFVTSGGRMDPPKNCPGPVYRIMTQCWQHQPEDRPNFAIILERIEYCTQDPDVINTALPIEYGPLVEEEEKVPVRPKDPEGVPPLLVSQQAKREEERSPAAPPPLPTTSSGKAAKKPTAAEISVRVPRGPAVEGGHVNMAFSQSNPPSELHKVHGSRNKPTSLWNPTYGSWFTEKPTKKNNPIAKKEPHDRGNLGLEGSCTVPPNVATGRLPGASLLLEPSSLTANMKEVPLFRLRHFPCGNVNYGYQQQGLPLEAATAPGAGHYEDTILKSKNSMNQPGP
T6 sequence (P08922 1945-2222 limits assumed): as the sequence (P08922 1945-2222 G2032R limits assumed) above, with R88G counted along it
T8 sequence (Q9UM73 1116-1392 L1196M/G1202R limits assumed): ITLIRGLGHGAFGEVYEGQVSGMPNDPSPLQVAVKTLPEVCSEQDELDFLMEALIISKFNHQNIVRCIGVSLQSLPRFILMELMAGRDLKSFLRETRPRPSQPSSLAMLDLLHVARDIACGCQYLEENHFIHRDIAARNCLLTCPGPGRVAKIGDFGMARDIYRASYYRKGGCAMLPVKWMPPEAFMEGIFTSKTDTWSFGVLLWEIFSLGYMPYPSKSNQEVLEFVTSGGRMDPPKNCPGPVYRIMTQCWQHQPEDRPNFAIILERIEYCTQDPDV
T3 sequence (Q9UM73 1116-1392 limits assumed): as the sequence (Q9UM73 1116-1392 L1196M/G1202R limits assumed) above, with M81L, R87G counted along it
T4 sequence (Q9UM73 with tags, fused parts or gaps): as the sequence (Q9UM73 with tags, fused parts or gaps L1196M/G1202R) above, with M635L, R641G counted along it

Structure (SMILES)	pKi (ROS1-G2032R)	pIC50 [2]	pKi (ALK-wt)	pIC50 [3]	pKi (TRKA-wt)	pKi (ROS1-wt)	pIC50 [4]	pKi (ALK L1196M/G1202R)	pIC50 [5]	pIC50 (Ba/F3 cells TPM3-TRKA)	TPM3-NTRK1-wt/CD74-ROS1-G2032R selectivity ratio [1]	TPM3-NTRK1-wt/CD74-ROS1-wt selectivity ratio [1]	TPM3-NTRK1-wt/EML4-ALK-L1196M-G1202R selectivity ratio [1]	TPM3-NTRK1-wt/EML4-ALK-wt selectivity ratio [1]
C[C@H]1Oc2cc(cnc2N)-c2c(cnn2C2CCC2)Cc2ncnn2-c2ccc(F)cc21 [Example 41, (19R)-3-cyclobutyl-16-fluoro-19-methyl-20-oxa-3,4,9,11,12,23-hexaazapentacyclo[19.3.1.0^2,^6.0^8,^12.0^13,^18]pentacosa-1(24),2(6),4,8,10,13,15,17,21(25),22-decaen-22-amine]	> 7.30	7.30 to 10.00	> 7.30	7.30 to 10.00	< 6.30	> 7.30	7.30 to 10.00	> 7.30	7.30 to 10.00	< 6.30	A (bin A for very high selectivity, ratio >30-fold)	A (bin A for very high selectivity, ratio >30-fold)	B (bin B for high selectivity, ratio >10-fold)	A (bin A for very high selectivity, ratio >30-fold)
CCn1ncc2c1-c1cnc(N)c(c1)O[C@H](C)c1cc(F)ccc1-n1ccnc1C2 [Example 42, (19R)-3-ethyl-16-fluoro-19-methyl-20-oxa-3,4,9,12,23-pentaazapentacyclo[19.3.1.0^2,^6.0^8,^12.0^13,^18]pentacosa-1(24),2(6),4,8,10,13,15,17,21(25),22-decaen-22-amine]	> 7.30	6.30 to 7.30	> 7.30	7.30 to 10.00	6.30 to 7.30	> 7.30	7.30 to 10.00	> 7.30	7.30 to 10.00	6.30 to 7.30	A (bin A for very high selectivity, ratio >30-fold)	A (bin A for very high selectivity, ratio >30-fold)	C (bin C for moderate selectivity, ratio ≥1)	B (bin B for high selectivity, ratio >10-fold)
Cc1nn(CC2CC2)c2c1Cn1nccc1-c1ccc(F)cc1[C@@H](C)Oc1cc-2cnc1N [Example 45, (19R)-3-(cyclopropylmethyl)-16-fluoro-5,19-dimethyl-20-oxa-3,4,8,9,23-pentaazapentacyclo[19.3.1.0^2,^6.0^8,^12.0^13,^18]pentacosa-1(24),2(6),4,9,11,13,15,17,21(25),22-decaen-22-amine]	> 7.30	6.30 to 7.30	> 7.30	7.30 to 10.00	< 6.30	> 7.30	7.30 to 10.00	> 7.30	7.30 to 10.00	< 6.30	A (bin A for very high selectivity, ratio >30-fold)	A (bin A for very high selectivity, ratio >30-fold)	A (bin A for very high selectivity, ratio >30-fold)	A (bin A for very high selectivity, ratio >30-fold)
C[C@H]1Oc2cc(cnc2N)-c2c(C#N)ncn2Cc2nccnc2-c2ccc(F)cc21 [Example 46, (20R)-23-amino-17-fluoro-20-methyl-21-oxa-4,6,9,12,24-pentaazapentacyclo[20.3.1.0^2,^6.0^8,^13.0^14,^19]hexacosa-1(25),2,4,8(13),9,11,14,16,18,22(26),23-undecaene-3-carbonitrile]	6.30 to 7.30	6.30 to 7.30	> 7.30	7.30 to 10.00	< 6.30	> 7.30	7.30 to 10.00	6.30 to 7.30	7.30 to 10.00	< 6.30	A (bin A for very high selectivity, ratio >30-fold)	A (bin A for very high selectivity, ratio >30-fold)	A (bin A for very high selectivity, ratio >30-fold)	A (bin A for very high selectivity, ratio >30-fold)

More lines, main results first:

pKi (ROS1-G2032R)	pIC50 [2]	pKi (ALK-wt)	pIC50 [3]	pKi (TRKA-wt)	pKi (ROS1-wt)	pIC50 [4]	pKi (ALK L1196M/G1202R)	pIC50 [5]	pIC50 (Ba/F3 cells TPM3-TRKA)	Structure (SMILES)	TPM3-NTRK1-wt/CD74-ROS1-G2032R selectivity ratio [1]	TPM3-NTRK1-wt/CD74-ROS1-wt selectivity ratio [1]	TPM3-NTRK1-wt/EML4-ALK-L1196M-G1202R selectivity ratio [1]	TPM3-NTRK1-wt/EML4-ALK-wt selectivity ratio [1]
> 7.30	6.30 to 7.30	> 7.30	7.30 to 10.00	6.30 to 7.30	> 7.30	7.30 to 10.00	> 7.30	7.30 to 10.00	6.30 to 7.30	CCn1ncc2c1-c1cnc(N)c(c1)O[C@H](C)c1cc(F)ccc1-n1nc(C)nc1C2 [Example 40, (19R)-3-ethyl-16-fluoro-10,19-dimethyl-20-oxa-3,4,9,11,12,23-hexaazapentacyclo[19.3.1.0^2,^6.0^8,^12.0^13,^18] pentacosa 1(24),2(6),4,8,10,13,15,17,21(25),22-decaen-22-amine]	A (bin A for very high selectivity, ratio >30-fold)	A (bin A for very high selectivity, ratio >30-fold)	C (bin C for moderate selectivity, ratio ≥1)	B (bin B for high selectivity, ratio >10-fold)
6.30 to 7.30	6.30 to 7.30	> 7.30	7.30 to 10.00	< 6.30	> 7.30	7.30 to 10.00	6.30 to 7.30	7.30 to 10.00	< 6.30	CCc1nsc2c1-c1cnc(N)c(c1)O[C@H](C)c1cc(F)ccc1-c1ncnn1C2 [Example 44, (19R)-3-ethyl-16-fluoro-19methyl-20-oxa-5-thia-4,8,9,11,23-pentaazapentacyclo[19.3.1.0^2,^6.0^8,^12.0^13,^18]pentacosa-1(24),2(6),3,9,11,13,15,17,21(25),22-decaen-22-amine]	A (bin A for very high selectivity, ratio >30-fold)	A (bin A for very high selectivity, ratio >30-fold)	C (bin C for moderate selectivity, ratio ≥1)	A (bin A for very high selectivity, ratio >30-fold)
< 6.30	< 6.30	> 7.30	7.30 to 10.00	< 6.30	> 7.30	6.30 to 7.30	6.30 to 7.30	7.30 to 10.00	< 6.30	C[C@H]1Oc2cc(cnc2N)-c2c(C#N)cnn2Cc2nccnc2-c2ccc(F)cc21 [Example 47]	B (bin B for high selectivity, ratio >10-fold)	A (bin A for very high selectivity, ratio >30-fold)	C (bin C for moderate selectivity, ratio ≥1)	A (bin A for very high selectivity, ratio >30-fold)
